Assay results reported in patent publication US5329012A, “Bis(acyloxmethyl)imidazole compounds” (The Research Foundation of State University of New York, priority 1987, dated 1994).
Like-named read-outs stand apart in the source and are kept apart here.

Tested on: lymphocytic leukemia P-388
Test: P-388 lymphocytic leukemia test in mice (NCI Protocol 1.200)
Format: in vivo, CDF1 female mice
Conditions: for response vs control in vivo at 25 mg/kg / response vs control in vivo at 50 mg/kg / response vs control in vivo at 100 mg/kg / response vs control in vivo at 200 mg/kg / response vs control in vivo at 400 mg/kg / response vs control in vivo at 12.5 mg/kg: Mus musculus, P388, 120 h, read-out: % T/C (mean survival time); for Tox.Day Surv. (survivors/animals tested): day 5
Experimental: Various bis(acyloxymethyl)imidazole derivatives prepared in accord with Examples I-XVIII and designated Samples A-J, were tested for anti-tumor activity in vivo using the lymphocytic leukemia P-388 test procedure in mice with Samples A and B representing controls. The test system was that employed by the National Cancer Institute (NCI) for the preliminary screening of anti-tumor agents, according to Protocol 1.200 (Cancer Chemo. Reports Part 3, Vol. 3, No. 2, page 9; 1972). In the study ascitic fluid containing 6×10^6 cells was implanted in the peritoneal cavity of CDF1 female mice. Each imidazole was given in a single injection, at four to six different dose levels (5-6 mice/dose level) daily for five (5) days beginning 24 hours after tumor innoculation. The control animals received saline. Test criteria was in accord with NCI protocol as follows: toxicity day evaluations were carried out on day 5 (number of survivors/number of animals tested); % T/C data was calculated through mean survival time [% T/C=(MST treated/MST control)x100, where MST=mean survival time]; BWD refers to the body weight difference (grams) of test animals compared to control animals; KE refers to the log of the tumor cell population at the end of treatment relative to tumor cell population before treatment.
Table I sets out the identification of the compounds corresponding to the samples used in this and further Examples. Table II sets out the results of the P-388 tests.

[1] = 100 mg/kg/inj, daily for 5 days
[2] = 200 mg/kg/inj, daily for 5 days
[3] = 400 mg/kg/inj, daily for 5 days
[4] = 12.5 mg/kg/inj, daily for 5 days

SMILES	BWD (body weight difference vs control) (25 mg/kg/inj, daily for 5 days) [g]	KE (log tumor cell population end vs before treatment) (25 mg/kg/inj, daily for 5 days)	BWD (body weight difference vs control) (50 mg/kg/inj, daily for 5 days) [g]	KE (log tumor cell population end vs before treatment) (50 mg/kg/inj, daily for 5 days)	BWD (body weight difference vs control) [1] [g]	KE (log tumor cell population end vs before treatment) [1]	BWD (body weight difference vs control) [2] [g]	KE (log tumor cell population end vs before treatment) [2]	BWD (body weight difference vs control) [3] [g]	KE (log tumor cell population end vs before treatment) [3]	response vs control in vivo at 25 mg/kg (25 mg/kg/inj, daily for 5 days) [%]	response vs control in vivo at 50 mg/kg (50 mg/kg/inj, daily for 5 days) [%]	response vs control in vivo at 100 mg/kg [1] [%]	response vs control in vivo at 200 mg/kg [2] [%]	response vs control in vivo at 400 mg/kg [3] [%]	BWD (body weight difference vs control) [4] [g]	KE (log tumor cell population end vs before treatment) [4]	response vs control in vivo at 12.5 mg/kg [4] [%]	Tox.Day Surv. (survivors/animals tested) (50 mg/kg/inj, daily for 5 days)	Tox.Day Surv. (survivors/animals tested) [1]	other results
COc1nc(COC(=O)NC(C)C)c(COC(=O)NC(C)C)n1C [J, 1-methyl-2-methoxy-4,5-bis-[N-(2-propyl)carbonyloxymethyl)imidazole]	-0.1	-0.60	-1.0	0.54	-2.1	1.87	-2.6	3.41	-4.2	3.88	130	147	166	189	196	–	–	–	–	–	–
CSc1nc(COC(=O)NC(C)C)c(COC(=O)NC(C)C)n1C [I, 1-methyl-2-methylthio-4,5-bis-[N-(2-propyl)carbonyloxymethyl)imidazole]	0.4	-0.91	0.0	-0.56	-1.2	1.89	-1.8	4.21	-3.4	toxic	125	130	163	184	70	2.6	-1.40	113	–	–	–
CNC(=O)OCc1nc(SC)n(Cc2ccccc2)c1COC(=O)NC [E, 1-benzyl-2-methylthio-4,5-bis-(N-methylcarbonyloxymethyl)imidazole]	–	–	0.9	-1.19	0.4	-1.19	-0.4	-0.44	-1.2	-0.71	–	–	–	–	–	–	–	–	6/6	6/6	Tox.Day Surv. (survivors/animals tested) [2]: 6/6; Tox.Day Surv. (survivors/animals tested) [3]: 6/6; response vs control in vivo at 50 mg/kg: 116%; response vs control in vivo at 100 mg/kg: 116%; response vs control in vivo at 200 mg/kg: 129%; response vs control in vivo at 400 mg/kg: 127%
CSc1nc(COC(=O)NC(C)C)c(COC(=O)NC(C)C)n1-c1ccccc1 [D, 1-phenyl-2-methylthio-4,5-bis-[N-(2-propyl)carbonyloxymethyl]imidazole]	0.6	–	0.3	-1.64	-2.0	-1.62	-2.8	-1.64	-4.8	-1.52	101	95	97	90	100	-0.2	-1.42	111	–	–	–
CNC(=O)OCc1nc(-c2ccccc2)n(C)c1COC(=O)NC [G, 1-methyl-2-phenyl-4,5-bis-(N-methylcarbonyloxymethyl)imidazole]	0.0	-1.44	-0.8	-1.38	-1.0	-1.31	-2.2	-1.28	–	–	–	–	–	–	–	-0.2	-1.56	–	5/5	5/5	Tox.Day Surv. (survivors/animals tested) [4]: 5/5; Tox.Day Surv. (survivors/animals tested) (25 mg/kg/inj, daily for 5 days): 5/5; Tox.Day Surv. (survivors/animals tested) [2]: 5/5; response vs control in vivo at 12.5 mg/kg: 98%; response vs control in vivo at 25 mg/kg: 107%; response vs control in vivo at 50 mg/kg: 112%; response vs control in vivo at 100 mg/kg: 116%; response vs control in vivo at 200 mg/kg: 119%
CSc1nc(COC(=O)NC(C)C)c(COC(=O)NC(C)C)n1Cc1ccccc1 [F, 1-benzyl-2-methylthio-4,5-bis-[N-(2-propyl)carbonyloxymethyl)imidazole]	-1.5	-1.59	-0.5	-0.42	-0.3	-0.39	-2.2	-0.32	-3.2	toxic	101	110	111	116	–	-0.2	-1.64	98	–	–	–
CNC(=O)OCc1nc(SC)n(-c2ccccc2)c1COC(=O)NC [C, 1-phenyl-2-methylthio-4,5-bis-(N-methylcarbonyloxymethyl)imidazole]	–	–	-1.4	0.60	-1.6	0.17	-3.0	1.46	-5.2	toxic	–	–	–	–	–	–	–	–	5/5	5/5	Tox.Day Surv. (survivors/animals tested) [2]: 5/5; Tox.Day Surv. (survivors/animals tested) [3]: 4/5; response vs control in vivo at 50 mg/kg: 141%; response vs control in vivo at 100 mg/kg: 133%; response vs control in vivo at 200 mg/kg: 156%
